Tests used:
[1] = test system: radiation-enhanced illegitimate integration of a plasmid in Hela cells; assay: Inhibition of radiation-enhanced illegitimate integration of exogenous DNA; assay type: cell-based, human; conditions: for radiation-enhanced illegitimate integration of plasmid (puromycin resistance): 2 μg Dbait, fractionated 4×0.5 Gy irradiation
Procedure: Exponentially growing cells in six-well plates were harvested and incubated with […] of complete DMEM containing a mixture of Dbait molecules and Superfect reagent (Qiagen, Courtaboeuf, France) in a ratio of 10 μl Superfect per μg DNA. After 5 h at 37° C. under standard conditions, the cells were washed with PBS and complete DMEM was added. Where indicated, cells were exposed to irradiation either in one session (10 Gy) 5 h after the beginning of transfection or in four sessions of 0.5 Gy administered with a ^137Cs unit (1 Gy/min) 3, 4, 5 and 6 h after the beginning of transfection and allowed to grow for two weeks. When plasmid integration was measured, 2 μg of plasmid was added to Dbait transfection and puromycin (1.7 μg/ml) was added to the growth medium 48 h after transfection. Plasmid transfection efficiency was estimated by analyzing 10,000 cells for GFP expression on a FACScan flow cytometer (FACSalibur, Beckton-Dickinson, USA).
Ionizing radiation is known to improve illegitimate integration of exogenous DNA, a process termed radiation-enhanced integration. Hela cell culture was used for this assay. Cells were transfected during 8 hours by 2 μg of a linear plasmid carrying the gene coding for neomycin resistance, and three different ratio of DNA/superfect (1:2, 1:5, 1:10). During transfection time, the cells were exposed to different irradiation protocols: no irradiation, one single irradiation of 1 Gy and 2 Gy, as well as a 2 Gy irradiation delivered by fractionated doses of 0.5 Gy every 2 hours (4×0.5 Gy). The integration of the plasmid was monitored by selection of Neo^R cells growing in a medium containing 0.6 mg/ml of G418. […] When 2 μg of Dbait32H (SEQ ID NO: 1) molecules were added to the transfection mix, the radiation-enhanced integration was abolished (FIG. 2.3).
Wortmann (Wort) and NU7026 (NU) which are known inhibitors of PI3K (including DNA-PK) were used as control.

DNA-PK = molecular target: T1, DNA-PK (Homo sapiens, UniProt P12956+P13010+P78527); assay: DNA-dependent protein kinase (DNA-PK) activity assay in Hep2 nuclear extract; assay type: biochemical; conditions: 2 μg Dbait, 1.5 μg Hep2 nuclear protein extract
T1 construct: Increasing amounts of Hep2 nuclear extract (cleaned of endogenous DNA by DEAE-Sepharose filtration) were assayed; endogenous in cells; host or cells: Hep2 cells (nuclear extract, DNA removed by DEAE-Sepharose filtration)
Procedure: DNA-PK activity was monitored using the kit SignaTECT DNA-dependent Protein Kinase Assay System (Promega, Madison, USA). Increasing amounts of Hep2 nuclear extract (cleaned of endogenous DNA by DEAE-Sepharose filtration) were assayed in the presence of 250 nM Dbait. Extract, biotinylated peptide substrate and various amount of nuclear extract were incubated 5 minutes at 30° C. with (γ-^32P)ATP according to manufacturer indications. The biotinylated substrate was capture on streptavidine membrane, washed and counted in a scintillation counter. Percentage of phosphorylation is calculated by dividing the bound radioactivity by the total count of (γ-^32P)ATP per sample. Reactions (10 μl) were carried out in 60 mM KOAc, 100 μg/ml BSA, 0.5 mM Mg(Cl)2, 1 μl T4 DNA ligase 10× buffer (Promega, Madison, USA). Nuclear extract and Dbait were incubated 2 minutes before addition of ^32P-labeled DNA (10 ng). Samples were incubated various time at 37° C. before ligation being stopped by 20 mM EDTA and 1 mg/ml Proteinase K addition. Ligation products were analyzed by electrophoresis through 0.7% agarose gels followed by autoradiography and quantification by phosphorimaging.
The kinase activity depended directly on the length and structure of the double-stranded ‘stem’ of the Dbait molecule. […] In addition, various backbone modifications (phosphothioate, methyphosphonate, 3′-3′ linkage) at the free blunt end (up to 3-bp), as well as the internally tagged ligands (e.g. fluorescent dyes), are capable of activating DNA-PK activity.

Substance | radiation-enhanced illegitimate integration of plasmid (puromycin resistance) [1] | radiation-enhanced integration of linear plasmid (neomycin resistance) ([1]; Hela, 2 μg Dbait added to transfection mix, 4×0.5 Gy) | DNA-PK activation (kinase activity) (DNA-PK)
Dbait32ss: 32-nt single strand DNA (SEQ ID NO: 1) (DNA ACGCACGGGTGTTGGGTCGTTTGTTCGGATCT; DNA, backbone not given here) | not effective |  | 
Dbait32H: hairpin double strand DNA with a stem of 32-bp, hexaethyleneglycol linker, phosphorothioate at the free blunt end (DNA ACGCACGGGTGTTGGGTCGTTTGTTCGGATCT; DNA, backbone not given here; hairpin, hexaethyleneglycol loop, 3-bp phosphorothioate at free blunt end) | capable of inhibiting | abolished | 
Dbait16H: hairpin double strand DNA with a stem of 16-bp (DNA ACGCACGGGTGTTGGG; DNA, backbone not given here; hairpin DNA with hexaethyleneglycol loop, 3-bp phosphorothioate at free blunt end) | not effective |  | inefficient
Dbait8H: hairpin double strand DNA with a stem of 8-bp (DNA ACGCACGG; DNA, backbone not given here; hairpin, hexaethyleneglycol loop, 3-bp phosphorothioate at free blunt end) | not effective |  | inefficient

— patent publication US7476729B2, “Dbait and uses thereof” (Institut Curie, priority 2003, dated 2009)
